Data on one compound can be found in US11129867B2, “Method of treating cancer cells” (priority 2017, dated 2021).

Where a SMILES comes first, the peptide text is derived from it. The star is where a group is joined. X1 = CN(C)c1ccc2c(-c3ccc(C(=O)*)cc3C(=O)[O-])c3ccc(=[N+](C)C)cc-3oc2c1

This test has as its system Caspase-7. The experiment in a line: Western blotting of Caspase-7. The format is cell-based, human. Conditions: Ca922, 25 μM, FIG. 11B. The protocol: Protein lysate of Ca922 cells treated with TMR-GBP 25 μM were blotted with antibodies against Caspase-3, Caspase-7, Caspase-9 and Poly (ADP-ribose) polymerase (PARP). Representative blots are shown.
Western Blotting Analysis
Cells were harvested by trypsion or scratch and lysed in RIPA buffer (50 mM Tris-HCl, pH 7.4, 150 mM NaCl, 0.1% SDS, 0.5% Sodium deoxycholate, 1% NP-40) supplemented with 1× protease inhibitor cocktail. Sample was incubated on ice for 30 minutes and scraped every 10 minutes. Centrifuge at 13,000 rpm at 4° C. for 15 minutes, then collect supernatant for analysis. Protein concentration was determined by Bradford assay. First, 5× Bradford assay dye reagent was diluted into […], and mixture with RIPA (as standard) or samples. Concentration was obtained by spectrophotometer measurement. Equal volume of 2× laemmli buffer containing β-ME was added into protein lysate for goal concentration. Protein samples were boiled at 100° C. for 15 minutes and resolved by 10% SDS-PAGE gel or 4%-15% gradient gel. Then, transfer to PVDF membrane by 100V or 110V voltage for 1 hour. […] Washing the membrane three times with 1×PBST for every 5 minutes, protein band was detected by modified ECL (ddH2O, […] Tris pH8.0, 200 μM p-coumaric acid, 1.25 mM luminal, 0.001% H2O2) with ImageQuant LAS 4000 digital imaging system.
For orientation: In western blotting, separated proteins are transferred to a membrane and probed.

As for `CN(C)c1ccc2c(-c3ccc(C(=O)N[C@@H](CC(N)=O)C(=O)N[C@@H](Cc4ccc(O)cc4)C(=O)N[C@@H](CCCNC(=N)N)C(=O)N[C@@H](Cc4c[nH]c5ccccc45)C(=O)N[C@@H](CCCNC(=N)N)C(=O)N[C@@H](CS)C(=O)N[C@@H](CCCCN)C(=O)N[C@@H](CC(N)=O)C(=O)N[C@@H](CCC(N)=O)C(=O)N[C@@H](CC(N)=O)C(=O)O)cc3C(=O)[O-])c3ccc(=[N+](C)C)cc-3oc2c1` [TMR-GBP] (X1-NYRWRCKNQN-OH; N-terminus and C-terminus assumed), the “activation of caspase-7” value was “did not activate”.
